Results from BindingDB's records for PubMed 20126400 (University of Oklahoma, 2010).
pKi: −log10 of the molar value.

How the values were obtained:
Test in all cases: Ray2010 Assay 74
Cannabinoid receptor 1 = Cannabinoid receptor 1 (Homo sapiens, UniProt P21554)
Excerpt: (§1) Table S2 shows raw Ki data for the current study combined with data collected from the literature for the ten additional compounds.

[1] = target: T1, Alpha-2C adrenergic receptor (Homo sapiens, UniProt P18825)
T1 sequence (P18825 whole entry): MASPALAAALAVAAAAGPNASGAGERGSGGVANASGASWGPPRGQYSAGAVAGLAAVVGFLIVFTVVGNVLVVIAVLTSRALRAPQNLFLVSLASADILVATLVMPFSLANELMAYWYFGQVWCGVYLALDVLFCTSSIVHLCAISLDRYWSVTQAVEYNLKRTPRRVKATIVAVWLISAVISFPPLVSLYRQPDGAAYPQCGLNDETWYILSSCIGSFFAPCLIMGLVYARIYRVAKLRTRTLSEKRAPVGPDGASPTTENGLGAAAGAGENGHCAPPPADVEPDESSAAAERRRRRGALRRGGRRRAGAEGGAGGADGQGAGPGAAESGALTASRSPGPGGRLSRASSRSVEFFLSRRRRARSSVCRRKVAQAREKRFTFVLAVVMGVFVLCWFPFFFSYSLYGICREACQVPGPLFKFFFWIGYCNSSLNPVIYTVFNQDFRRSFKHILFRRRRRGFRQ
Excerpt: as §1

[2] = target: 5-hydroxytryptamine receptor 7 (Homo sapiens, UniProt P34969)
Excerpt: as §1

[3] = target: T2, Muscarinic acetylcholine receptor M4 (Homo sapiens, UniProt P08173)
T2 sequence (P08173 whole entry): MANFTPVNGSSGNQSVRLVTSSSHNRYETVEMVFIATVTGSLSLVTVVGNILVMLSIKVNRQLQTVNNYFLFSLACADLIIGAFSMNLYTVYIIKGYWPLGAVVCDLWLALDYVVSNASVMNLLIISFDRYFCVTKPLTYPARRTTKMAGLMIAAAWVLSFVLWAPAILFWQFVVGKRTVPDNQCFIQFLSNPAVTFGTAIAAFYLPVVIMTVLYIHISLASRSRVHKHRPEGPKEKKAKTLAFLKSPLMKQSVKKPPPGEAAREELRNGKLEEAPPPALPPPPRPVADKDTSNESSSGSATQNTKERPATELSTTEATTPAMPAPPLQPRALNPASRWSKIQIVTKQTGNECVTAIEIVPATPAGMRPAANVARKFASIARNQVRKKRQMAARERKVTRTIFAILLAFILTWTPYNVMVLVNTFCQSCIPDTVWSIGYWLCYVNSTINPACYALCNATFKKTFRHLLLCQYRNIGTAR
Excerpt: as §1

[4] = target: T3, 5-hydroxytryptamine receptor 2C (Homo sapiens, UniProt P28335)
T3 sequence (P28335 whole entry): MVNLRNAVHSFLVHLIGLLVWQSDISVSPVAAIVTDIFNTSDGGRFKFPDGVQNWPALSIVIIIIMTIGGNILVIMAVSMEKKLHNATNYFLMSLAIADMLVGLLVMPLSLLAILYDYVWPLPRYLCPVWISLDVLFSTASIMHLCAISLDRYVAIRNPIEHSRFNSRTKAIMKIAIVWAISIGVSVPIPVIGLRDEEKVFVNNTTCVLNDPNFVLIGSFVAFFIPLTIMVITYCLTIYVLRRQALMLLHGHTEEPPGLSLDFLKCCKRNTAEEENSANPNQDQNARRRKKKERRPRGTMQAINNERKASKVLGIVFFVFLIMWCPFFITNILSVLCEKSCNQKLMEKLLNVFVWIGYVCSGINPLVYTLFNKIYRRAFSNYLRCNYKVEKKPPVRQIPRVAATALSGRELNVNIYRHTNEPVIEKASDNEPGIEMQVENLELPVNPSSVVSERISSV
Excerpt: as §1

[5] = target: Neuronal acetylcholine receptor subunit alpha-4/beta-2 (Homo sapiens, UniProt P17787+P43681)
Excerpt: as §1

[6] = target: Neuronal acetylcholine receptor subunit alpha-2/beta-2 (Homo sapiens, UniProt P17787+Q15822)
Excerpt: as §1

[7] = target: Neuronal acetylcholine receptor subunit alpha-2/beta-4 (Homo sapiens, UniProt P30926+Q15822)
Excerpt: as §1

[8] = target: Neuronal acetylcholine receptor subunit alpha-3/beta-2 (Homo sapiens, UniProt P17787+P32297)
Excerpt: as §1

[9] = target: Neuronal acetylcholine receptor subunit alpha-4/beta-2 (Mus musculus, UniProt O70174+Q9ERK7)
Excerpt: as §1

[10] = target: Neuronal acetylcholine receptor subunit alpha-4/beta-4 (Homo sapiens, UniProt P30926+P43681)
Excerpt: as §1

Glutamate receptor 4 = Glutamate receptor 4 (Homo sapiens, UniProt P48058)
Excerpt: as §1

[11] = target: Metabotropic glutamate receptor 8 (Homo sapiens, UniProt O00222)
Excerpt: as §1

[12] = target: Metabotropic glutamate receptor 1 (Homo sapiens, UniProt Q13255)
Excerpt: as §1

[13] = target: Metabotropic glutamate receptor 2 (Homo sapiens, UniProt Q14416)
Excerpt: as §1

[14] = target: Metabotropic glutamate receptor 5 (Homo sapiens, UniProt P41594)
Excerpt: as §1

[15] = target: Metabotropic glutamate receptor 6 (Homo sapiens, UniProt O15303)
Excerpt: as §1

[16] = target: Metabotropic glutamate receptor 4 (Homo sapiens, UniProt Q14833)
Excerpt: as §1

Chain of Neuronal acetylcholine receptor subunit alpha-4/beta-2 (Mus musculus, UniProt O70174+Q9ERK7) (O70174 whole entry): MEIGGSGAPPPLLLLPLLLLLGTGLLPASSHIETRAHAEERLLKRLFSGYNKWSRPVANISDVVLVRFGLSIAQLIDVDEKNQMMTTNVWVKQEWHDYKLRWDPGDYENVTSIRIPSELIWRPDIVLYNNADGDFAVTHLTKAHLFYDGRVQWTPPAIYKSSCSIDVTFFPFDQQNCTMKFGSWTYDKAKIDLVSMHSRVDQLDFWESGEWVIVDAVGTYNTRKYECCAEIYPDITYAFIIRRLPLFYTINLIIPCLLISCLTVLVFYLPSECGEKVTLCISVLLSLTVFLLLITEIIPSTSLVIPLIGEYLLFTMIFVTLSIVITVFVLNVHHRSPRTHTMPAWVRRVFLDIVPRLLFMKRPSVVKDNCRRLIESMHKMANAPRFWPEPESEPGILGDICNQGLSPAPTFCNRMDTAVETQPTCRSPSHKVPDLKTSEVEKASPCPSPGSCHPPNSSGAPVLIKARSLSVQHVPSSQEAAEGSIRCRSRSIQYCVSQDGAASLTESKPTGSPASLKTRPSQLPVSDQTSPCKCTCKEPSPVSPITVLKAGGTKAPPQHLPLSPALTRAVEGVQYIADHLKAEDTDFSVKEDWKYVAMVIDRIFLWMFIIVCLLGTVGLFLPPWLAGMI
Chain of Neuronal acetylcholine receptor subunit alpha-4/beta-2 (Mus musculus, UniProt O70174+Q9ERK7) (Q9ERK7 whole entry): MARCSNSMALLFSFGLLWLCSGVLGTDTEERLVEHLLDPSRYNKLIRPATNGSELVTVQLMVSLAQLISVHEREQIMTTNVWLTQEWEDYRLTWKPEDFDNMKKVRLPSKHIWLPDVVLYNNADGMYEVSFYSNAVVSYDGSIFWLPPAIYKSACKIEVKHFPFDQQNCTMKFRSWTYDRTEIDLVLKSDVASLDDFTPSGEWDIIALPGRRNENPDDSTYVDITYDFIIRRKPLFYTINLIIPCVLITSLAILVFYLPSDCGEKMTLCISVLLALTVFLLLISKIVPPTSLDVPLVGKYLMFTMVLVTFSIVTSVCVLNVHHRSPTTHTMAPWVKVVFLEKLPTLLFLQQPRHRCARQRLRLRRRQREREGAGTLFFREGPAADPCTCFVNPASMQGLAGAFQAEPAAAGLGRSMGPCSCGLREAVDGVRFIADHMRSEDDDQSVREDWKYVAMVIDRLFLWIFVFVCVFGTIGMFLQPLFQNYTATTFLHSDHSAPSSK
Chain of Metabotropic glutamate receptor 6 (O15303 whole entry): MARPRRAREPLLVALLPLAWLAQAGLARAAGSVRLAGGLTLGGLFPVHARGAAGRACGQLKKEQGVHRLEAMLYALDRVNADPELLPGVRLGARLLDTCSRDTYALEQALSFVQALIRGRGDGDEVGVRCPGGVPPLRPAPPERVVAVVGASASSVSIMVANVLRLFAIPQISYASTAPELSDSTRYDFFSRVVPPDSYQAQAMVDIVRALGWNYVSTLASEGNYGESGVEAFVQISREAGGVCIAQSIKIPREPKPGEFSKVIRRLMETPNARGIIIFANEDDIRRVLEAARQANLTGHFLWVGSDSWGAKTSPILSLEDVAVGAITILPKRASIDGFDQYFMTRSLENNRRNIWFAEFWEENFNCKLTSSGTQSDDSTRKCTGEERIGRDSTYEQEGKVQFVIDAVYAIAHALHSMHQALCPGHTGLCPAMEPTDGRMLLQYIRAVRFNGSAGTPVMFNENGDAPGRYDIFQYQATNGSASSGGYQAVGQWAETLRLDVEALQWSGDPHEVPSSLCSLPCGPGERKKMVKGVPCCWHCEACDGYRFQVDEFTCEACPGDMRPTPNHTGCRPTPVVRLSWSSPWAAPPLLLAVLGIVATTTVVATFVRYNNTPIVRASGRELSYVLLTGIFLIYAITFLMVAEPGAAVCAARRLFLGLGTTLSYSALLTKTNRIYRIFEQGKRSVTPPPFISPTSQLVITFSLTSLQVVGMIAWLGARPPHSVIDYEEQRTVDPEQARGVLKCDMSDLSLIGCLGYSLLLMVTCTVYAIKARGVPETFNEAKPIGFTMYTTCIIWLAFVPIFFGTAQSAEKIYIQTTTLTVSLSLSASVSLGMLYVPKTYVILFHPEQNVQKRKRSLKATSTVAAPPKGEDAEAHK
Chain of Metabotropic glutamate receptor 4 (Q14833 whole entry): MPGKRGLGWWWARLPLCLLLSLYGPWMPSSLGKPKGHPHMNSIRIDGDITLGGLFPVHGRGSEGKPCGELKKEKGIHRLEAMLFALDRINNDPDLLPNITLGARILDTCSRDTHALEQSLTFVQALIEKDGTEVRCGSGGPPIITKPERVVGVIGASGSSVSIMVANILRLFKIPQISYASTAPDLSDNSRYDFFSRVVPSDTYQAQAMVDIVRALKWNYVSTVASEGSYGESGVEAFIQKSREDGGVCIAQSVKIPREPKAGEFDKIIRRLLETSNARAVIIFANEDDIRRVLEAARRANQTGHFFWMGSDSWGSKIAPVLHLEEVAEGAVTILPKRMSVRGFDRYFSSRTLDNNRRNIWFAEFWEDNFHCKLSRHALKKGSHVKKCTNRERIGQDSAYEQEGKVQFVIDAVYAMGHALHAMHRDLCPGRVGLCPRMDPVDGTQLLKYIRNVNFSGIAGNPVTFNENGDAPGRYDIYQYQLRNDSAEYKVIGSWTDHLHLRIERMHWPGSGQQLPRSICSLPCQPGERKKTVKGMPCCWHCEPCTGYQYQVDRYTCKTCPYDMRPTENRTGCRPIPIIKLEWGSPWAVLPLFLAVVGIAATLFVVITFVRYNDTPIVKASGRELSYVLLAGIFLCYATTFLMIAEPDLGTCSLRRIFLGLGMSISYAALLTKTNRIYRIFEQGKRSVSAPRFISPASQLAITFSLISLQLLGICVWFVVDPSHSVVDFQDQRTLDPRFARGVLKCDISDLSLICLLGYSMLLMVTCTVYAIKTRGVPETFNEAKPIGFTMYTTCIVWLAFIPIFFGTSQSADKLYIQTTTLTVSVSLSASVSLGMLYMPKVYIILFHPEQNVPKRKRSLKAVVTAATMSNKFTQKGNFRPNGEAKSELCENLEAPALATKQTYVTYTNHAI
Chain of Cannabinoid receptor 1 (P21554 whole entry): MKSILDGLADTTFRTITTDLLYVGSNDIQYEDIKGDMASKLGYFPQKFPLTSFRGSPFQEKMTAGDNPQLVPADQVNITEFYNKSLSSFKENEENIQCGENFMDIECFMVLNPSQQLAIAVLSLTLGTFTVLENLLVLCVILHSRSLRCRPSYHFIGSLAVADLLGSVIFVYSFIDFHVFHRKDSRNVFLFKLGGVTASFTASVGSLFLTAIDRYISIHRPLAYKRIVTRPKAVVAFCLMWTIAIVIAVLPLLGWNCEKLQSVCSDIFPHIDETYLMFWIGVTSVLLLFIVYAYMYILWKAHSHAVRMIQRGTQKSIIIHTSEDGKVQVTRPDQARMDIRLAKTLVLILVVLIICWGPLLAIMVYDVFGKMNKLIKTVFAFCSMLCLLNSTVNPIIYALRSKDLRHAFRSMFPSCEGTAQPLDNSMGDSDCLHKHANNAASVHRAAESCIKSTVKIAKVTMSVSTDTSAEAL
Chain of Metabotropic glutamate receptor 8 (O00222 whole entry): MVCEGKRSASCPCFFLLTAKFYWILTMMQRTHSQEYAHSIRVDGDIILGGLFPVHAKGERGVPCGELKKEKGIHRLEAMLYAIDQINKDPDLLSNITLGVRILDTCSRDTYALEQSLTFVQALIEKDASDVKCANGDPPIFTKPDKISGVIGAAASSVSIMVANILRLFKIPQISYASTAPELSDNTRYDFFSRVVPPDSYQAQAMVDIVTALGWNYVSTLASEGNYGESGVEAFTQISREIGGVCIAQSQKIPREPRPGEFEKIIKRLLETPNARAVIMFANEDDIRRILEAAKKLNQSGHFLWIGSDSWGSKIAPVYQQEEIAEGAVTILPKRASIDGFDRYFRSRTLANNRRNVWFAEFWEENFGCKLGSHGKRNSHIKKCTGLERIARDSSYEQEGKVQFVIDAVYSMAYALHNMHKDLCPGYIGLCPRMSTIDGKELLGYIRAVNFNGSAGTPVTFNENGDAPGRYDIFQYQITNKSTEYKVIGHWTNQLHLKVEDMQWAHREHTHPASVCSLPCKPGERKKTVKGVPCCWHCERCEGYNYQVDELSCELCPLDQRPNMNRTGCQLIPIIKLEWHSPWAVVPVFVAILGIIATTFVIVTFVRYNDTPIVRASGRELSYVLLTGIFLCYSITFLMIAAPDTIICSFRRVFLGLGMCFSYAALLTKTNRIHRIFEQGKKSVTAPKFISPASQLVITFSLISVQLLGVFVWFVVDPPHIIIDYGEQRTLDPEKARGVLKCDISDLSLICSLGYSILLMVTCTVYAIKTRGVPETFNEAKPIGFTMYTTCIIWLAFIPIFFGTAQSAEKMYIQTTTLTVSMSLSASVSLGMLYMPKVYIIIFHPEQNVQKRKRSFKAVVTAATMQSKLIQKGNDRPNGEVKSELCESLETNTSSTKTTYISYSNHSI
Chain of 5-hydroxytryptamine receptor 7 (P34969 whole entry): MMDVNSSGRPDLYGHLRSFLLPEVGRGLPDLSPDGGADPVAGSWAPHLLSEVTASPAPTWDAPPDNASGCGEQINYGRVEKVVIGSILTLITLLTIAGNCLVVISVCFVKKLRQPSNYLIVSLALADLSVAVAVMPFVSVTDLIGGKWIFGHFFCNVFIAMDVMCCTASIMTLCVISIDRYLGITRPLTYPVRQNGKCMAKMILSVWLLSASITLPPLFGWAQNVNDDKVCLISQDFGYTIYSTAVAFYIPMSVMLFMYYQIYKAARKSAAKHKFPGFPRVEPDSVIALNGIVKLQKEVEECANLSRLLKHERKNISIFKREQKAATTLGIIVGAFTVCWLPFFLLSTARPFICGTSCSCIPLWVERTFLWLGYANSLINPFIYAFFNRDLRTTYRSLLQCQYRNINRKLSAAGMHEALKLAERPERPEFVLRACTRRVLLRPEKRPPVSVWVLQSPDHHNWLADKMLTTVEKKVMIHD

Compound	pKi (Cannabinoid receptor 1)	pKi [1]	pKi [2]	pKi [3]	further results
CC(N)Cc1ccc2c(c1)OCO2 (centres undefined)	< 5.00	6.64	5.45		
CCOc1cc(OC)c(CC(C)N)cc1OC (centres undefined)	< 5.00	< 5.00	5.15	< 5.00	pKi [4]: < 5.00
COc1cc(CCN)c(OC)cc1Br	< 5.00	6.99	6.68	< 5.00	
CCSc1cc(OC)c(CC(N)CC)cc1OC (centres undefined) [1-(4-Ethylsulfanyl-2,5-dimethoxy-benzyl)-propylamine]	< 5.00	< 5.00	5.42	< 5.00	
CN(C)CCc1c[nH]c2ccccc12 [2-(1H-indol-3-yl)-N,N-dimethylethanamine]	< 5.00		7.06	< 5.00	
CCc1cc(OC)c(CCN)cc1OC [2-(2,5-dimethoxy-4-ethylphenyl)ethylamine]	< 5.00	7.04	6.37	< 5.00	
COc1cc(CC(C)N)c(OC)cc1Br (stereo not drawn) [2-(4-Bromo-2,5-dimethoxy-phenyl)-1-methyl-ethylamine((-)-DOB)]	< 5.00	6.23	6.30	< 5.00	
CCSc1cc(OC)c(CC(C)N)cc1OC (centres undefined) [2-(4-Ethylsulfanyl-2,5-dimethoxy-phenyl)-1-methyl-ethylamine]	< 5.00	5.86	5.88	< 5.00	
NCCc1c2c(c(Br)c3c1OCC3)OCC2 [2-(8-Bromo-2,3,6,7-tetrahydro-benzo[1,2-b;4,5-b']difuran-4-yl)-ethylamine]	< 5.00	6.63		6.28	pKi [5]: < 5.00; pKi [4]: 7.97; pKi [6]: < 5.00; pKi [7]: < 5.00; pKi [8]: < 5.00; pKi [9]: < 5.00; pKi [10]: < 5.00
CCc1[nH]c2ccc(OC)cc2c1CCN(C)C [2-ethyl-5-methoxy-N,N-dimethyltryptamine]				< 5.00	pKi [5]: < 5.00; pKi [6]: < 5.00; pKi [7]: < 5.00; pKi [8]: < 5.00; pKi [9]: < 5.00; pKi (Glutamate receptor 4): < 5.00; pKi [10]: < 5.00
CCSc1cc(OC)c(CCN)cc1OC [2C-T-2]	< 5.00	6.78		< 5.00	
COC(=O)[C@@H]1C[C@H](OC(C)=O)C(=O)[C@H]2[C@@]1(C)CC[C@H]1C(=O)O[C@H](c3ccoc3)C[C@]21C [2S,4aR,6a(R,7R,9S,10aS,10bR)-9-(acetyloxy)-2-(furan-3-yl)dodecahydro-6a,10b-dimethyl-4,10-dioxo-2H-naphtho[2,1-c]pyran-7-carboxylic acid methyl ester]			< 5.00	< 5.00	pKi [4]: < 5.00
COc1cc(CCN)cc(OC)c1OC [3,4,5-trimethoxyphenylethylamine]	< 5.00	6.13	< 5.00	< 5.00	pKi [4]: < 5.00
COc1ccc2[nH]cc(CCN(C)C)c2c1 [3-(2-DIMETHYLAMINOETHYL)-5-METHOXYINDOLE]	< 5.00	6.29		< 5.00	
CN(C)CCc1c[nH]c2cccc(O)c12 [4-hydroxy-N,N-dimethyltryptamine]	< 5.00			< 5.00	
COc1ccc2[nH]cc(CCN(C(C)C)C(C)C)c2c1 [5-meo-dipt]	< 5.00	5.54	5.91	< 5.00	pKi [4]: < 5.00
COc1ccc2[nH]cc(CCN(C)C(C)C)c2c1 [5-meo-mipt]		6.20	7.70	< 5.00	
CN(C)CCc1c[nH]c2cc(F)ccc12 [6-f-dmt]	< 5.00	6.83	7.39	< 5.00	
COc1cc(OC)c(OC)cc1CC(C)N (stereo not drawn) [(+/-)1-Methyl-2-(2,4,5-trimethoxy-phenyl)-ethylamine]		< 5.00	< 5.00		
COc1cc(CC(C)N)c(OC)cc1C (stereo not drawn) [(+/-)2-(2,5-Dimethoxy-4-methyl-phenyl)-1-methyl-ethylamine]	< 5.00	6.04	5.80		pKi [5]: < 5.00; pKi [6]: < 5.00; pKi [7]: < 5.00; pKi [8]: < 5.00; pKi [9]: < 5.00; pKi [10]: < 5.00
COc1ccc2[nH]c(C)c(CCN(C)C)c2c1 [[2-(5-Methoxy-2-methyl-1H-indol-3-yl)-ethyl]-dimethyl-amine (C2H2O)]				< 5.00	pKi [5]: < 5.00; pKi [6]: < 5.00; pKi [7]: < 5.00; pKi [8]: < 5.00; pKi [9]: < 5.00; pKi (Glutamate receptor 4): < 5.00; pKi [10]: < 5.00
CCN(CC)C(=O)[C@@H]1C=C2c3cccc4[nH]cc(c34)C[C@H]2N(C)C1 [[N-methyl-3H]LSD]					pKi [11]: < 5.00; pKi [5]: < 5.00; pKi [12]: < 5.00; pKi [13]: < 5.00; pKi [6]: < 5.00; pKi [14]: < 5.00; pKi [7]: < 5.00; pKi [8]: < 5.00; pKi [9]: < 5.00; pKi [10]: < 5.00; pKi [15]: < 5.00; pKi [16]: < 5.00
C[C@@H]1C[C@H](C)N1C(=O)C1C=C2c3cccc4[nH]cc(c34)C[C@H]2N(C)C1 (stereo partly drawn) [cis-2a]					pKi [11]: < 5.00; pKi [5]: < 5.00; pKi [12]: < 5.00; pKi [13]: < 5.00; pKi [6]: < 5.00; pKi [14]: < 5.00; pKi [7]: < 5.00; pKi [8]: < 5.00; pKi [9]: < 5.00; pKi [10]: < 5.00; pKi [15]: < 5.00; pKi [16]: < 5.00
CC(C)N(CCc1c[nH]c2ccccc12)C(C)C [dipt]	< 5.00	5.60	5.47	< 5.00	pKi [4]: < 5.00
CCCN(CCC)CCc1c[nH]c2ccccc12 [dpt]	< 5.00	6.29	6.55	< 5.00	
C[C@@H]1C[C@@H](C)N1C(=O)C1C=C2c3cccc4[nH]cc(c34)C[C@H]2N(C)C1 (some centres undefined) [rr-2b]					pKi [11]: < 5.00; pKi [5]: < 5.00; pKi [12]: < 5.00; pKi [13]: < 5.00; pKi [6]: < 5.00; pKi [14]: < 5.00; pKi [7]: < 5.00; pKi [8]: < 5.00; pKi [9]: < 5.00; pKi [10]: < 5.00; pKi [15]: < 5.00; pKi [16]: < 5.00
CAS_82830-44-2::(2R)-1-(4-iodo-2,5-dimethoxyphenyl)propan-2-amine::DOI,(-)::US20250270173, Compound DOI	< 5.00	6.22	5.24	6.24	pKi [4]: 7.34; pKi [6]: < 5.00; pKi [8]: < 5.00; pKi [9]: < 5.00
